Source: US12421210B2, “Fused bicyclic heterocycles as therapeutic agents” (NEW YORK UNIVERSITY, priority 2018, dated 2025)

These compounds were tested against human NAMPT enzyme (His-hNAMPT) (Homo sapiens (Human), UniProt P43490) (assay: NAMPT enzymatic inhibition assay (fluorescence, NADH product)). Conditions: [BPS]; read-out: NAMPT IC50 (μM) [BPS].
Assay type: biochemical

Sequence of human NAMPT enzyme (His-hNAMPT) (P43490 whole entry): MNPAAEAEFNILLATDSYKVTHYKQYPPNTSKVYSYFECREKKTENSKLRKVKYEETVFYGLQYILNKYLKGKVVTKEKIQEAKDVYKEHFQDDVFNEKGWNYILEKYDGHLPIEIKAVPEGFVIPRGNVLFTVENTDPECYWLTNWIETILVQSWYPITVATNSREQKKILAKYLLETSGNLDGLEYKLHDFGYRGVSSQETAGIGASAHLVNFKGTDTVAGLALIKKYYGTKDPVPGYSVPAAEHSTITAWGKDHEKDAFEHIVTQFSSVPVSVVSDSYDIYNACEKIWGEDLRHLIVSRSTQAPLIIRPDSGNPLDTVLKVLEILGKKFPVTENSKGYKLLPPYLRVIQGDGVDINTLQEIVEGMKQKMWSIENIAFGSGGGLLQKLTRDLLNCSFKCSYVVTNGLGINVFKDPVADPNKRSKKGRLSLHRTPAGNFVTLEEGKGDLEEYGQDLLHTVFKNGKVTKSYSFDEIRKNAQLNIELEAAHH

| SMILES | IC50 [µM] |
| --- | --- |
| N#CN=C(NCC[C@@H]1[C@H]2CN(C(=O)c3ccccc3)C[C@@H]12)Nc1ccncc1 [Example 228, (E)-1-(2-((1R,5S,6s)-3-benzoyl-3-azabicyclo[3.1.0]hexan-6-yl)ethyl)-2-cyano-3-(pyridin-4-yl)guanidine] | 0.01 to 0.49 |
| CC1(OC(=O)N2C[C@@H]3[C@@H](CCN/C(=N\C#N)Nc4ccncc4)[C@@H]3C2)COC1 [Example 229, (1R,5S,6s)-3-methyloxetan-3-yl 6-(2-((E)-2-cyano-3-(pyridin-4-yl)guanidino)ethyl)-3-azabicyclo[3.1.0]hexane-3-carboxylate] | 0.01 to 0.49 |
| CC1(OC(=O)N2C[C@@H]3[C@@H](CCNC(=O)N4Cc5ccccc5C4)[C@@H]3C2)COC1 [Example 230, (1R,5S,6s)-3-methyloxetan-3-yl 6-(2-(isoindoline-2-carboxamido)ethyl)-3-azabicyclo[3.1.0]hexane-3-carboxylate] | 0.01 to 0.49 |
| CC(C)(C)OC(=O)N1C[C@@H]2[C@@H](CNC(=O)c3cc(-c4cccnc4)on3)[C@@H]2C1 [Example 231, (1R,5S,6s)-tert-butyl 6-((5-(pyridin-3-yl)isoxazole-3-carboxamido)methyl)-3-azabicyclo[3.1.0]hexane-3-carboxylate] | 1 to 29 |

Now from value to compound:

| IC50 [µM] | SMILES |
| --- | --- |
| 0.01 to 0.49 | CC(C)(C)OC(=O)N1C[C@@H]2[C@@H](CNC(=O)/C=C/c3cccnc3)[C@@H]2C1 [Example 232, (1R,5S,6s)-tert-butyl 6-(((E)-3-(pyridin-3-yl)acrylamido)methyl)-3-azabicyclo[3.1.0]hexane-3-carboxylate] |
| > 30 | CC(C)(C)OC(=O)N1C[C@@H]2[C@@H](CNC(=O)COc3cccnc3)[C@@H]2C1 [Example 233, (1R,5S,6s)-tert-butyl 6-((2-(pyridin-3-yloxy)acetamido)methyl)-3-azabicyclo[3.1.0]hexane-3-carboxylate] |
| 1 to 29 | CC(C)(C)OC(=O)N1C[C@@H]2[C@@H](CNC(=O)/C=C/c3ccc(N)nc3)[C@@H]2C1 [Example 234, (1R,5S,6s)-tert-butyl 6-(((E)-3-(6-aminopyridin-3-yl)acrylamido)methyl)-3-azabicyclo[3.1.0]hexane-3-carboxylate] |
| 1 to 29 | CC(C)(C)OC(=O)N1C[C@@H]2[C@@H](CNC(=O)c3cc4ccncc4o3)[C@@H]2C1 [Example 235, (1R,5S,6s)-tert-butyl 6-((furo[2,3-c]pyridine-2-carboxamido)methyl)-3-azabicyclo[3.1.0]hexane-3-carboxylate] |
| > 30 | CC(C)(C)OC(=O)N1C[C@@H]2[C@@H](CNC(=O)c3cc4ccncc4s3)[C@@H]2C1 [Example 236, (1R,5S,6s)-tert-butyl 6-((thieno[2,3-c]pyridine-2-carboxamido)methyl)-3-azabicyclo[3.1.0]hexane-3-carboxylate] |
| 0.5 to 0.99 | O=C(/C=C/c1cccnc1)NC[C@@H]1[C@H]2CN(C(=O)c3ccccc3)C[C@@H]12 [Example 237, (E)-N-(((1R,5S,6s)-3-benzoyl-3-azabicyclo[3.1.0]hexan-6-yl)methyl)-3-(pyridin-3-yl)acrylamide] |
| 1 to 29 | CC1(OC(=O)N2C[C@@H]3[C@@H](CNC(=O)/C=C/c4cccnc4)[C@@H]3C2)COC1 [Example 238, (1R,5S,6s)-3-methyloxetan-3-yl 6-(((E)-3-(pyridin-3-yl)acrylamido)methyl)-3-azabicyclo[3.1.0]hexane-3-carboxylate] |
| 1 to 29 | CC1(OC(=O)N2C[C@@H]3[C@@H](CNC(=O)/C=C/c4ccc(N)nc4)[C@@H]3C2)COC1 [Example 239, (1R,5S,6s)-3-methyloxetan-3-yl 6-(((E)-3-(6-aminopyridin-3-yl)acrylamido)methyl)-3-azabicyclo[3.1.0]hexane-3-carboxylate] |
| 1 to 29 | Nc1ccc(/C=C/C(=O)NC[C@@H]2[C@H]3CN(C(=O)c4ccccc4)C[C@@H]23)cn1 [Example 240, (E)-3-(6-aminopyridin-3-yl)-N-(((1R,5S,6s)-3-benzoyl-3-azabicyclo[3.1.0]hexan-6-yl)methyl)acrylamide] |
| 1 to 29 | CC(C)(C)OC(=O)N1C[C@@H]2[C@H](C1)[C@H]2CC1(NC(=O)/C=C/c2ccc(N)nc2)CC1 [Example 241, (1R,5S,6s)-tert-butyl 6-((1-((E)-3-(6-aminopyridin-3-yl)acrylamido)cyclopropyl)methyl)-3-azabicyclo[3.1.0]hexane-3-carboxylate] |
| > 30 | CC(C)(C)OC(=O)N1C[C@@H]2[C@H](C1)[C@H]2CC1(NC(=O)/C=C/c2cccnc2)CC1 [Example 242, (1R,5S,6s)-tert-butyl 6-((1-((E)-3-(pyridin-3-yl)acrylamido)cyclopropyl)methyl)-3-azabicyclo[3.1.0]hexane-3-carboxylate] |

Same assay, conditions: [HDB]; read-out: NAMPT IC50 (μM) [HDB]

| SMILES | IC50 [µM] |
| --- | --- |
| COc1ccc(/C=C/C(=O)NCC[C@@H]2[C@H]3CN(c4nc(Cl)ncc4F)C[C@@H]23)cn1 [Example 212, (E)-N-(2-((1R,5S,6s)-3-(2-chloro-5-fluoropyrimidin-4-yl)-3-azabicyclo[3.1.0]hexan-6-yl)ethyl)-3-(6-methoxypyridin-3-yl)acrylamide] | 0.01 to 0.49 |
| O=C(NCC[C@@H]1[C@H]2CN(c3nc(Cl)ncc3F)C[C@@H]12)c1cnc2nccn2c1 [Example 213, N-(2-((1R,5S,6s)-3-(2-chloro-5-fluoropyrimidin-4-yl)-3-azabicyclo[3.1.0]hexan-6-yl)ethyl)imidazo[1,2-a]pyrimidine-6-carboxamide] | 0.01 to 0.49 |
| O=C(/C=C/c1ccncc1)NCC[C@@H]1[C@H]2CN(c3nc(Cl)ncc3F)C[C@@H]12 [Example 214, (E)-N-(2-((1R,5S,6s)-3-(2-chloro-5-fluoropyrimidin-4-yl)-3-azabicyclo[3.1.0]hexan-6-yl)ethyl)-3-(pyridin-4-yl)acrylamide] | 0.01 to 0.49 |
| O=C(CCc1ccncc1)NCC[C@@H]1[C@H]2CN(c3nc(Cl)ncc3F)C[C@@H]12 [Example 215, N-(2-((1R,5S,6s)-3-(2-chloro-5-fluoropyrimidin-4-yl)-3-azabicyclo[3.1.0]hexan-6-yl)ethyl)-3-(pyridin-4-yl)propanamide] | 1 to 29 |
| O=C(NCC[C@@H]1[C@H]2CN(c3nc(Cl)ncc3F)C[C@@H]12)c1ccc2ncnn2c1 [Example 217, N-(2-((1R,5S,6s)-3-(2-chloro-5-fluoropyrimidin-4-yl)-3-azabicyclo[3.1.0]hexan-6-yl)ethyl)-[1,2,4]triazolo[1,5-a]pyridine-6-carboxamide] | 0.01 to 0.49 |
| O=C(CCc1ccccn1)NCC[C@@H]1[C@H]2CN(c3nc(Cl)ncc3F)C[C@@H]12 [Example 218, N-(2-((1R,5S,6s)-3-(2-chloro-5-fluoropyrimidin-4-yl)-3-azabicyclo[3.1.0]hexan-6-yl)ethyl)-3-(pyridin-2-yl)propanamide] | 0.01 to 0.49 |
| O=C(COc1cccnc1)NCC[C@@H]1[C@H]2CN(c3nc(Cl)ncc3F)C[C@@H]12 [Example 219, N-(2-((1R,5S,6s)-3-(2-chloro-5-fluoropyrimidin-4-yl)-3-azabicyclo[3.1.0]hexan-6-yl)ethyl)-2-(pyridin-3-yloxy)acetamide] | 0.01 to 0.49 |
| O=C(NCC[C@@H]1[C@H]2CN(c3nc(Cl)ncc3F)C[C@@H]12)c1cc2c(nc3sccn32)s1 [Example 220, N-(2-((1R,5S,6s)-3-(2-chloro-5-fluoropyrimidin-4-yl)-3-azabicyclo[3.1.0]hexan-6-yl)ethyl)thieno[2′,3′:4,5]imidazo[2,1-b]thiazole-2-carboxamide] | 0.01 to 0.49 |
| O=C(NCC[C@@H]1[C@H]2CN(c3nc(Cl)ncc3F)C[C@@H]12)c1cc2ccncc2o1 [Example 221, N-(2-((1R,5S,6s)-3-(2-chloro-5-fluoropyrimidin-4-yl)-3-azabicyclo[3.1.0]hexan-6-yl)ethyl)furo[2,3-c]pyridine-2-carboxamide] | 0.01 to 0.49 |
| O=C(NCC[C@@H]1[C@H]2CN(c3nc(Cl)ncc3F)C[C@@H]12)c1cc2ccncc2s1 [Example 223, N-(2-((1R,5S,6s)-3-(2-chloro-5-fluoropyrimidin-4-yl)-3-azabicyclo[3.1.0]hexan-6-yl)ethyl)thieno[2,3-c]pyridine-2-carboxamide] | 0.01 to 0.49 |
| O=C(NCC[C@@H]1[C@H]2CN(c3nc(Cl)ncc3F)C[C@@H]12)c1cnc2[nH]ncc2c1 [Example 224, N-(2-((1R,5S,6s)-3-(2-chloro-5-fluoropyrimidin-4-yl)-3-azabicyclo[3.1.0]hexan-6-yl)ethyl)-1H-pyrazolo[3,4-b]pyridine-5-carboxamide] | 0.01 to 0.49 |
| O=C(NCC[C@@H]1[C@H]2CN(c3nc(Cl)ncc3F)C[C@@H]12)N1Cc2ccccc2C1 [Example 225, N-(2-((1R,5S,6s)-3-(2-chloro-5-fluoropyrimidin-4-yl)-3-azabicyclo[3.1.0]hexan-6-yl)ethyl)isoindoline-2-carboxamide] | < 0.01 |
| O=C(NCC[C@@H]1[C@H]2CN(c3nc(Cl)ncc3F)C[C@@H]12)N1Cc2ccncc2C1 [Example 226, N-(2-((1R,5S,6s)-3-(2-chloro-5-fluoropyrimidin-4-yl)-3-azabicyclo[3.1.0]hexan-6-yl)ethyl)-1H-pyrrolo[3,4-c]pyridine-2(3H)-carboxamide] | 0.01 to 0.49 |
| O=C(NCC[C@@H]1[C@H]2CN(c3nc(Cl)ncc3F)C[C@@H]12)N1Cc2cccnc2C1 [Example 227, N-(2-((1R,5S,6s)-3-(2-chloro-5-fluoropyrimidin-4-yl)-3-azabicyclo[3.1.0]hexan-6-yl)ethyl)-5H-pyrrolo[3,4-b]pyridine-6(7H)-carboxamide] | 0.01 to 0.49 |
| CC(C)N1C[C@@H]2[C@@H](CCNC(=O)/C=C/c3cccnc3)[C@@H]2C1 [Example 245, (E)-N-(2-((1R,5S,6s)-3-isopropyl-3-azabicyclo[3.1.0]hexan-6-yl)ethyl)-3-(pyridin-3-yl)acrylamide] | 1 to 29 |

Now from value to compound:

| IC50 [µM] | SMILES |
| --- | --- |
| 1 to 29 | CC(C)(C)OC(=O)N1C[C@@H]2[C@@H](CNC(=O)COc3cccnc3)[C@@H]2C1 [Example 233, (1R,5S,6s)-tert-butyl 6-((2-(pyridin-3-yloxy)acetamido)methyl)-3-azabicyclo[3.1.0]hexane-3-carboxylate] |
| 0.01 to 0.49 | O=C(/C=C/c1cccnc1)NCC[C@@H]1[C@H]2CN(Cc3ccccc3)C[C@@H]12 [Example 243, (E)-N-(2-((1R,5S,6s)-3-benzyl-3-azabicyclo[3.1.0]hexan-6-yl)ethyl)-3-(pyridin-3-yl)acrylamide] |
| 0.01 to 0.49 | O=C(/C=C/c1cccnc1)NCC[C@@H]1[C@H]2CN(Cc3ccc(C(F)(F)F)cc3)C[C@@H]12 [Example 244, (E)-3-(pyridin-3-yl)-N-(2-((1R,5S,6s)-3-(4-(trifluoromethyl)benzyl)-3-azabicyclo[3.1.0]hexan-6-yl)ethyl)acrylamide] |
